Laboratory results from patent US20140135310A1, “SULPHONAMIDE DERIVATIVES OF ALICYCLIC AMINES FOR THE TREATMENT OF CENTRAL NERVOUS SYSTEM DISEASES” (Adamed Sp. z o.o., priority 2011, published 2014).
One block for each compound: values may come before it.

Legend:
[1] = target: dopaminergic receptors D2 (Homo sapiens, UniProt P14416); assay: Radioligand binding assay, dopaminergic D2 receptors; details: binding assay, test compound 1×10^−6 M
Outline: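 Radioligand displacement was measured by scintillation counting, with non-specific binding defined in the presence of excess unlabelled ligand. Competition curves were fitted to the Hill equation to give IC50, and Ki was derived by the Cheng–Prusoff equation.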

[2] = target: dopaminergic receptors D3 (Homo sapiens, UniProt P35462); assay: Radioligand binding assay, dopaminergic D3 receptors; details: test compound 1×10^−6 M
Outline: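 Competition radioligand binding at human D2, D3 and D4.4 receptors, detected by scintillation counting; nonspecific binding defined with excess unlabelled ligand. Results as percent inhibition of control specific binding; IC50 by Hill-equation nonlinear regression; Ki via Cheng-Prusoff, with radioligand KD from Scatchard plot.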

[3] = target: T1, 5-HT1A receptor (rat hippocampus) (Rattus norvegicus, UniProt P19327); assay: Radioligand binding assay, serotoninergic 5-HT1A receptors; details: binding assay result in %, Table 5a;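 note: test compound at 1 µM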
T1 construct: hippocampus; from tissue; host or cells: rat hippocampus
T1 sequence (P19327 1-422): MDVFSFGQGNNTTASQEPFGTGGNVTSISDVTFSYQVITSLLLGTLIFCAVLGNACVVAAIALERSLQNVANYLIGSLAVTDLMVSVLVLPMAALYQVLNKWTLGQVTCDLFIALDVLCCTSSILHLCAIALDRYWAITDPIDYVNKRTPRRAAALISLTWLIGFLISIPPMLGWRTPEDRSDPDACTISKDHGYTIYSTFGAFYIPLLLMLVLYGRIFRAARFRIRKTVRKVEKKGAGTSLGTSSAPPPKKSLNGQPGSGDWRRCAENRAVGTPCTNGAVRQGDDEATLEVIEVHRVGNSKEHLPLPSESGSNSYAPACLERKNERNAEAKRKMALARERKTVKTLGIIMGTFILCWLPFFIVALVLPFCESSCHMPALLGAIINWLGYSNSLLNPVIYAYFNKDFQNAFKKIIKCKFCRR

5-HT2A receptor = target: T2, 5-HT2A receptor (Homo sapiens, UniProt P28223); assay: Radioligand binding assay, serotoninergic 5-HT2A receptors; details: binding assay result in %, Table 5a
T2 construct: purchased PerkinElmer
Outline: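 Radioligand competition binding with scintillation counting; nonspecific binding defined by excess unlabelled ligand. Data as percent inhibition of control specific binding. IC50 by Hill-equation fit of competition curves; Ki by Cheng-Prusoff, with radioligand Kd from Scatchard plot.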

5-HT6 receptor = target: T3, 5-HT6 receptor (Homo sapiens, UniProt P50406); assay: Radioligand binding assay, serotoninergic 5-HT6 receptors; details: binding assay result in %, Table 5a;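 note: test compound at 1 µM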
T3 construct: purchased PerkinElmer
Outline: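 Values are Ki from Cheng–Prusoff, taking IC50 from Hill nonlinear regression of competition curves and KD from a Scatchard plot. Specific binding was total minus binding with excess unlabelled ligand. Radioligand displacement was detected by scintillation counting, and data were also reported as percent of control specific binding.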

5-HT7 receptor = target: T4, 5-HT7 receptor (Homo sapiens, UniProt P34969); assay: Radioligand binding assay, serotoninergic 5-HT7 receptors; details: binding assay result in %, Table 5a;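 note: test compound at 1 µM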
T4 construct: purchased PerkinElmer
Outline: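 Competition binding at human 5-HT7 receptors with a radioligand, detected by scintillation counting; non-specific binding was defined with excess unlabelled ligand. IC50 came from Hill-equation fits of competition curves, and Ki from Cheng–Prusoff using radioligand concentration and Scatchard-derived KD.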

[4] = system: α1 adrenergic receptors (rat cerebral cortex); assay: Radioligand binding assay, adrenergic α1 receptors; details: test compound 1×10^−6 M
Outline: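 Values derive from radioligand displacement, with non-specific binding defined by excess cold ligand and detection by scintillation. Hill-fit IC50s were converted to Ki via Cheng-Prusoff using Scatchard-derived Kd; percent inhibition of control specific binding also reported.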

[5] = target: T5, serotonin transporter (SERT) (Homo sapiens, UniProt P31645); assay: Radioligand binding assay, serotonin transporter (SERT); details: binding assay, test compound 1×10^−6 M
T5 construct: expressed in transfected cells; host or cells: CHO cells
Outline: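 Radioligand competition binding with scintillation detection; specific binding is total minus binding under excess unlabelled ligand. Reported as % of control specific binding or % inhibition; IC50 from Hill-equation non-linear regression of competition curves, and Ki via Cheng-Prusoff using radioligand concentration and Scatchard-derived KD.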

T2 sequence (P28223 whole entry): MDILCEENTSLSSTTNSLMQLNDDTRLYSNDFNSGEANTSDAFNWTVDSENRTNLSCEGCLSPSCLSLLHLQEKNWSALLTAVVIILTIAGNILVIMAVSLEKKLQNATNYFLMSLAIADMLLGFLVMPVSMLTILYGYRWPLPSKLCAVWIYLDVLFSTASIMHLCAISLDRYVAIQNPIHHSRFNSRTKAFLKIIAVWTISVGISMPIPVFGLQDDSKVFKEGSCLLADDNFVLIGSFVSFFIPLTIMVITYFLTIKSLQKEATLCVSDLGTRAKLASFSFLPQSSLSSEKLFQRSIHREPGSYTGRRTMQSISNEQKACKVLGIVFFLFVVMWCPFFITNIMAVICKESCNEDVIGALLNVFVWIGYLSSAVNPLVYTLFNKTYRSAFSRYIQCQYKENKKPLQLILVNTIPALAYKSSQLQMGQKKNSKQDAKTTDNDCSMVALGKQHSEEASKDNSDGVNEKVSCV
T5 sequence (P31645 whole entry): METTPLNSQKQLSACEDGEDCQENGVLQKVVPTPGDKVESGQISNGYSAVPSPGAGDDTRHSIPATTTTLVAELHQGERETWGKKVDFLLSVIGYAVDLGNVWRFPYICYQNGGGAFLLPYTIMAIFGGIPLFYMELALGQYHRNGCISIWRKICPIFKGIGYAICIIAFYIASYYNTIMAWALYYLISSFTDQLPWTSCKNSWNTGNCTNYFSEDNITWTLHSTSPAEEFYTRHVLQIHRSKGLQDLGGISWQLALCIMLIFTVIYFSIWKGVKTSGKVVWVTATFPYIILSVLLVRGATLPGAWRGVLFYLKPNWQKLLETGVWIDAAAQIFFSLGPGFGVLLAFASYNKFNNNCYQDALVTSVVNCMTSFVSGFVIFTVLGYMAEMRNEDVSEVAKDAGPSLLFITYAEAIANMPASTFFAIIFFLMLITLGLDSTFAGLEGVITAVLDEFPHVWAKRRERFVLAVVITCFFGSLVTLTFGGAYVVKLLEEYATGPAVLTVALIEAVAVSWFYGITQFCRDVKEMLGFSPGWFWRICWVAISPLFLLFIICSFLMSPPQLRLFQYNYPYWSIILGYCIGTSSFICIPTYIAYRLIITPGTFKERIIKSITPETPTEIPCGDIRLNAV
dopaminergic receptors D3, sequence (P35462 whole entry): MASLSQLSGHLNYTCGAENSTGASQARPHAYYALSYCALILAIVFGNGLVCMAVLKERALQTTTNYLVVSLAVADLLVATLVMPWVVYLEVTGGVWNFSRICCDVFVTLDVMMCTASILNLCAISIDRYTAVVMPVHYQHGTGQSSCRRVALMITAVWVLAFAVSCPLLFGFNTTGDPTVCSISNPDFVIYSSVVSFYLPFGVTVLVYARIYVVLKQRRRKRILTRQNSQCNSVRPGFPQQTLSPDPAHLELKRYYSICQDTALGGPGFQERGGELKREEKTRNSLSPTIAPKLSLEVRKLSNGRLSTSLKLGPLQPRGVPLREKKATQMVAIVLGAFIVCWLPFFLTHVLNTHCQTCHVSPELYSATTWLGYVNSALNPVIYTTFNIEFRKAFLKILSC
T3 sequence (P50406 whole entry): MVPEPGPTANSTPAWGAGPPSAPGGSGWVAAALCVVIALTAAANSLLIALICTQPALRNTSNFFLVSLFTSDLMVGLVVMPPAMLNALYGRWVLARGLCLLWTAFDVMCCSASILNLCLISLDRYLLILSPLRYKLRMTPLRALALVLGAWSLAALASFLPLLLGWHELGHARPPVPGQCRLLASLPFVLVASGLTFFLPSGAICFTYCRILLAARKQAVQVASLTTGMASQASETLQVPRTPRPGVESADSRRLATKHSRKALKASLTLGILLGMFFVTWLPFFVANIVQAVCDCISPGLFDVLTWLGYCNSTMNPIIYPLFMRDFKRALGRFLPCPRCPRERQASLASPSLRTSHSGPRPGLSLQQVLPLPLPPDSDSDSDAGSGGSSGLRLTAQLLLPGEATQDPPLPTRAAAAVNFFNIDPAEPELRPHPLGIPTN
T4 sequence (P34969 whole entry): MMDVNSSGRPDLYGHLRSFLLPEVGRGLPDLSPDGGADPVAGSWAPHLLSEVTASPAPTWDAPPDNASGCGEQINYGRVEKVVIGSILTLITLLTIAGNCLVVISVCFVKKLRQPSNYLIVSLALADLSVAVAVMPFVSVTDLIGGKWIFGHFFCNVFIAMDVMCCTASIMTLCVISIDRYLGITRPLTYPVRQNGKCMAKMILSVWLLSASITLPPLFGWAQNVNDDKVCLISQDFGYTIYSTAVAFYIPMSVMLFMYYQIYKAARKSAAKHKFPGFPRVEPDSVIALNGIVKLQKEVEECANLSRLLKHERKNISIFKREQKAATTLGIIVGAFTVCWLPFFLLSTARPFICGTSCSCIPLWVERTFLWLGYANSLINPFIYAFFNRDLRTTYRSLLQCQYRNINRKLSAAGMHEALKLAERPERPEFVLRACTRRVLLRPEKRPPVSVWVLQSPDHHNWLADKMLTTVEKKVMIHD
dopaminergic receptors D2, sequence (P14416 whole entry): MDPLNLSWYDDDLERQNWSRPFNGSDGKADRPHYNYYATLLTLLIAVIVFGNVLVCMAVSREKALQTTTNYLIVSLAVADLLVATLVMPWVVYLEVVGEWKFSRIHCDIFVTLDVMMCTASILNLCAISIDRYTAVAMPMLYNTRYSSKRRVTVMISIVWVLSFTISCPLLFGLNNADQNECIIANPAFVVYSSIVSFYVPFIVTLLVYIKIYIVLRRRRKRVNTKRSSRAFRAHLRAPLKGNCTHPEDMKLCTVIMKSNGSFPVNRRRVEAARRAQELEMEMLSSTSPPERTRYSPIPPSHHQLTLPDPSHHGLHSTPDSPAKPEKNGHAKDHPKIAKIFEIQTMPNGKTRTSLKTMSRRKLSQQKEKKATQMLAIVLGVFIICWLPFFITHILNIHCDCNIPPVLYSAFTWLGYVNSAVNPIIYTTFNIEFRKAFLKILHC

D2 [%] [1]: 38%
D3 [%] [2]: 78%
5-HT1A [%] [3]: 96%
5-HT2A [%] (5-HT2A receptor): 97%
5-HT6 [%] (5-HT6 receptor): 64%
5-HT7 [%] (5-HT7 receptor): 90%
α1 [%] [4]: 70%
SERT [%] [5]: 36%
Structure (SMILES): O=S(=O)(NC1CCN(CCOc2cccc3c2OCCO3)C1)c1ccc2ccccc2c1 (centres unmarked) [Compound 99, N-[1-[2-(2,3-Dihydro-1,4-benzodioxan-8-yloxy)ethyl]pyrrolidin-3-yl]-naphthalene-2-sulphonamide]

Structure (SMILES): O=S(=O)(NC1CCN(CCOc2cccc3c2OCCO3)CC1)c1cccc2ccccc12 [Compound 100, N-[1-[2-(2,3-dihydro-1,4-benzodioxan-8-yloxy)ethyl]-4-piperidine]-naphthalene-1-sulphonamide]
D2 [%] [1]: 41%
D3 [%] [2]: 74%
5-HT1A [%] [3]: 94%
5-HT2A [%] (5-HT2A receptor): 97%
5-HT6 [%] (5-HT6 receptor): 28%
5-HT7 [%] (5-HT7 receptor): 103%
α1 [%] [4]: 87%
SERT [%] [5]: 57%

Structure (SMILES): CC1(C)Cc2cccc(OCCN3CCC(CNS(=O)(=O)c4cccc(O)c4)C3)c2O1 (centres unmarked) [Compound 113, N-[[1-[2-[(2,2-Dimethyl-3H-benzofuran-7-yl)oxy]ethyl]pyrrolidin-3-yl]methyl]-3-hydroxy-benzenesulphonamide]
inhibition at 1 µM [1]: 47%
inhibition at 1 µM [2]: 55%
inhibition at 1 µM [3]: 81%
inhibition at 1 µM (5-HT2A receptor): 65%
inhibition at 1 µM (5-HT6 receptor): 52%
inhibition at 1 µM (5-HT7 receptor): 85%
α1 [%] [4]: 55%
inhibition at 1 µM [5]: 18%

Structure (SMILES): CC1(C)Cc2cccc(OCCN3CCC(CNS(=O)(=O)c4ccc5ccccc5c4)C3)c2O1 (centres unmarked) [Compound 114, N-[[1-[2-[(2,2-Dimethyl-3H-benzofuran-7-yl)oxy]ethyl]pyrrolidin-3-yl]methyl]naphthalene-2-sulphonamide]
inhibition at 1 µM [1]: 49%
inhibition at 1 µM [2]: 62%
inhibition at 1 µM [3]: 98%
inhibition at 1 µM (5-HT2A receptor): 90%
inhibition at 1 µM (5-HT6 receptor): 56%
inhibition at 1 µM (5-HT7 receptor): 97%
α1 [%] [4]: 27%
inhibition at 1 µM [5]: 5%

Structure (SMILES): O=S(=O)(NC1CCN(CCOc2cccc3c2OCCO3)CC1)c1ccccc1 [Compound 117, N-[1-[2-(2,3-Dihydro-1,4-benzodioxan-8-yloxy)ethyl]-4-piperidine]-benzenesulphonamide]
D2 [%] [1]: 24%
D3 [%] [2]: 29%
5-HT1A [%] [3]: 76%
5-HT2A [%] (5-HT2A receptor): 86%
5-HT6 [%] (5-HT6 receptor): 34%
5-HT7 [%] (5-HT7 receptor): 93%
α1 [%] [4]: 53%
SERT [%] [5]: 33%

Structure (SMILES): Cc1cccc(S(=O)(=O)NC2CCN(CCOc3cccc4c3OCCO4)CC2)c1 [Compound 118, N-[1-[2-(2,3-Dihydro-1,4-benzodioxan-8-yloxy)ethyl]-4-piperidine]-3-methyl-benzenesulphonamide]
D2 [%] [1]: 32%
D3 [%] [2]: 20%
5-HT1A [%] [3]: 85%
5-HT2A [%] (5-HT2A receptor): 83%
5-HT6 [%] (5-HT6 receptor): 51%
5-HT7 [%] (5-HT7 receptor): 99%
α1 [%] [4]: 72%
SERT [%] [5]: 41%

Structure (SMILES): O=S(=O)(NC1CCN(CCOc2cccc3ccccc23)CC1)c1cccc(O)c1 [Compound 119, 3-Hydroxy-N-[1-[2-(1-naphthyloxy)ethyl]-4-piperidine]benzene-sulphonamide]
D2 [%] [1]: 79%
D3 [%] [2]: 93%
5-HT1A [%] [3]: 89%
5-HT2A [%] (5-HT2A receptor): 69%
5-HT6 [%] (5-HT6 receptor): 57%
5-HT7 [%] (5-HT7 receptor): 85%
α1 [%] [4]: 78%
SERT [%] [5]: 10%

Structure (SMILES): O=S(=O)(NC1CCN(CCOc2cccc3ccccc23)CC1)c1ccc2ccccc2c1 [Compound 120, N-[1-[2-(1-Naphthyloxy)ethyl]-4-piperidine]naphthalene-2-sulphonamide]
D2 [%] [1]: −33%
D3 [%] [2]: 30%
5-HT1A [%] [3]: 8%
5-HT2A [%] (5-HT2A receptor): 68%
5-HT6 [%] (5-HT6 receptor): 24%
5-HT7 [%] (5-HT7 receptor): 89%
α1 [%] [4]: −9%
SERT [%] [5]: 21%

Structure (SMILES): O=S(=O)(NCC1CCN(CCOc2cccc3ccccc23)C1)c1cccc(O)c1 (centres unmarked) [Compound 123, 3-Hydroxy-N-[[1-[2-(1-naphthyloxy)ethyl]pyrrolidin-3-yl]methyl]-benzenesulphonamide]
inhibition at 1 µM [1]: 38%
inhibition at 1 µM [2]: 86%
inhibition at 1 µM [3]: 99%
inhibition at 1 µM (5-HT2A receptor): 64%
inhibition at 1 µM (5-HT6 receptor): 72%
inhibition at 1 µM (5-HT7 receptor): 88%
α1 [%] [4]: 43%
inhibition at 1 µM [5]: 83%

Structure (SMILES): Cn1ccc2cc(S(=O)(=O)NCC3CN(CCCc4noc5cc(F)ccc45)C3)ccc21 [Compound 150, N-[[1-[3-(6-Fluoro-1,2-benzoxazol-3-yl)propyl]azetidin-3-yl]methyl]-1-methyl-indole-5-sulphonamide]
inhibition at 1 µM [1]: 53%
inhibition at 1 µM [2]: 60%
inhibition at 1 µM [3]: -9%
inhibition at 1 µM (5-HT2A receptor): 85%
inhibition at 1 µM (5-HT6 receptor): 65%
inhibition at 1 µM (5-HT7 receptor): 84%
α1 [%] [4]: 98%
inhibition at 1 µM [5]: 12%

Structure (SMILES): O=S(=O)(NCC1CN(CCCc2c[nH]c3ccc(F)cc23)C1)c1ccc2ccccc2c1 [Compound 160, N-[[1-[3-(5-Fluoro-1H-indol-3-yl)propyl]azetidin-3-yl]methyl]naphthalene-2-sulphonamide]
inhibition at 1 µM [1]: 86%
inhibition at 1 µM [2]: 87%
inhibition at 1 µM [3]: 76%
inhibition at 1 µM (5-HT2A receptor): 97%
inhibition at 1 µM (5-HT6 receptor): 83%
inhibition at 1 µM (5-HT7 receptor): 75%
α1 [%] [4]: 49%
inhibition at 1 µM [5]: 100%

Structure (SMILES): O=S(=O)(NCC1CN(CCCc2c[nH]c3ccc(Cl)cc23)C1)c1ccc2ccccc2c1 [Compound 161, N-[[1-[3-(5-Chloro-1H-indol-3-yl)propyl]azetidin-3-yl]methyl]naphthalene-2-sulphonamide]
inhibition at 1 µM [1]: 84%
inhibition at 1 µM [2]: 75%
inhibition at 1 µM [3]: 86%
inhibition at 1 µM (5-HT2A receptor): 88%
inhibition at 1 µM (5-HT6 receptor): 87%
inhibition at 1 µM (5-HT7 receptor): 83%
α1 [%] [4]: 46%
inhibition at 1 µM [5]: 66%

Structure (SMILES): O=S(=O)(NCC1CN(CCOc2nsc3ccccc23)C1)c1ccc2ccccc2c1 [Compound 162, N-[[1-[2-(1,2-Benzothiazol-3-yloxy)ethyl]azetidin-3-yl]methyl]-naphthalene-2-sulphonamide]
inhibition at 1 µM [1]: 61%
inhibition at 1 µM [2]: 100%
inhibition at 1 µM [3]: 85%
inhibition at 1 µM (5-HT2A receptor): -17%
inhibition at 1 µM (5-HT6 receptor): -56%
inhibition at 1 µM (5-HT7 receptor): 91%
α1 [%] [4]: 83%
inhibition at 1 µM [5]: -9%

Structure (SMILES): O=S(=O)(NCC1CN(CCOc2cccc3ccccc23)C1)c1cc2ccccc2s1 [Compound 163, N-[[1-[2-(1-Naphthyloxy)ethyl]azetidin-3-yl]methyl]benzothiophene-2-sulphonamide]
inhibition at 1 µM [1]: 73%
inhibition at 1 µM [2]: 99%
inhibition at 1 µM [3]: 88%
inhibition at 1 µM (5-HT2A receptor): 99%
inhibition at 1 µM (5-HT6 receptor): 87%
inhibition at 1 µM (5-HT7 receptor): 88%
α1 [%] [4]: 27%
inhibition at 1 µM [5]: 45%

Structure (SMILES): O=S(=O)(NCC1CN(CCOc2cccc3ccccc23)C1)c1cc2ccc(Cl)cc2s1 [Compound 164, 6-Chloro-N-[[1-[2-(1-naphthyloxy)ethyl]azetidin-3-yl]methyl]-benzothiophene-2-sulphonamide]
inhibition at 1 µM [1]: 78%
inhibition at 1 µM [2]: 98%
inhibition at 1 µM [3]: 83%
inhibition at 1 µM (5-HT2A receptor): 102%
inhibition at 1 µM (5-HT6 receptor): 94%
inhibition at 1 µM (5-HT7 receptor): 92%
α1 [%] [4]: 13%
inhibition at 1 µM [5]: 34%

Structure (SMILES): O=S(=O)(NCC1CN(CCOc2cccc3ccccc23)C1)c1ccc2cc(Cl)ccc2c1 [Compound 165, 6-Chloro-N-[[1-[2-(1-naphthyloxy)ethyl]azetidin-3-yl]methyl]naphthalene-2-sulphonamide]
inhibition at 1 µM [1]: 66%
inhibition at 1 µM [2]: 100%
inhibition at 1 µM [3]: 87%
inhibition at 1 µM (5-HT2A receptor): 99%
inhibition at 1 µM (5-HT6 receptor): 97%
inhibition at 1 µM (5-HT7 receptor): 105%
α1 [%] [4]: 15%
inhibition at 1 µM [5]: 111%
